Experimental data published in article PMC7266154 (RNA, 2020).

Tested on: protein synthesis in E. coli S30 extract
Format: biochemical, Escherichia coli
Conditions: read-out: IC50, inhibition of firefly luciferase synthesis, 37°C, 30 min, luciferase activity, three independent measurements

| IC50 | SMILES |
| --- | --- |
| 320 ± 20 nM | CC[C@H]1OC(=O)[C@H](C)[C@@H](O[C@H]2C[C@@](C)(OC)[C@@H](O)[C@H](C)O2)[C@H](C)[C@@H](O[C@@H]2O[C@H](C)C[C@H](N(C)C)[C@H]2O)[C@](C)(O)C[C@@H](C)C(=O)[C@H](C)[C@@H](O)[C@]1(C)O [ERY, erythromycin] |
| 190 ± 20 nM | CC[C@H]1OC(=O)[C@H](C)[C@@H](O[C@H]2C[C@@](C)(OC)[C@@H](O)[C@H](C)O2)[C@H](C)[C@@H](O[C@@H]2O[C@H](C)C[C@H](N(C)C)[C@H]2O)[C@](C)(O)C[C@@H](C)[C@@H]2N[C@@H](COCCOC)O[C@H]([C@H]2C)[C@]1(C)O [DIR, dirithromycin] |
